Molecular target: HEK293 cells with stable expression of the GRIN1 gene and tetracycline-inducible expression of the GRIN2B gene (NMDA receptor, NR2B) (Homo sapiens, UniProt Q13224)
Assay: Fluo-8 Ca2+ flux assay: reversal of Ro 25-6981-mediated suppression of the Ca2+ response to co-agonist (glutamate/glycine); further: test concentration or dose not given here
Assay type: cell-based
Details: reversal of the Ro 25-6981 suppression of the Ca2+ response to co-agonist (glutamate/glycine)

HEK293 cells with stable expression of the GRIN1 gene and tetracycline-inducible expression of the GRIN2B gene (NMDA receptor, NR2B), sequence (Q13224 27-1484, other chains not shown): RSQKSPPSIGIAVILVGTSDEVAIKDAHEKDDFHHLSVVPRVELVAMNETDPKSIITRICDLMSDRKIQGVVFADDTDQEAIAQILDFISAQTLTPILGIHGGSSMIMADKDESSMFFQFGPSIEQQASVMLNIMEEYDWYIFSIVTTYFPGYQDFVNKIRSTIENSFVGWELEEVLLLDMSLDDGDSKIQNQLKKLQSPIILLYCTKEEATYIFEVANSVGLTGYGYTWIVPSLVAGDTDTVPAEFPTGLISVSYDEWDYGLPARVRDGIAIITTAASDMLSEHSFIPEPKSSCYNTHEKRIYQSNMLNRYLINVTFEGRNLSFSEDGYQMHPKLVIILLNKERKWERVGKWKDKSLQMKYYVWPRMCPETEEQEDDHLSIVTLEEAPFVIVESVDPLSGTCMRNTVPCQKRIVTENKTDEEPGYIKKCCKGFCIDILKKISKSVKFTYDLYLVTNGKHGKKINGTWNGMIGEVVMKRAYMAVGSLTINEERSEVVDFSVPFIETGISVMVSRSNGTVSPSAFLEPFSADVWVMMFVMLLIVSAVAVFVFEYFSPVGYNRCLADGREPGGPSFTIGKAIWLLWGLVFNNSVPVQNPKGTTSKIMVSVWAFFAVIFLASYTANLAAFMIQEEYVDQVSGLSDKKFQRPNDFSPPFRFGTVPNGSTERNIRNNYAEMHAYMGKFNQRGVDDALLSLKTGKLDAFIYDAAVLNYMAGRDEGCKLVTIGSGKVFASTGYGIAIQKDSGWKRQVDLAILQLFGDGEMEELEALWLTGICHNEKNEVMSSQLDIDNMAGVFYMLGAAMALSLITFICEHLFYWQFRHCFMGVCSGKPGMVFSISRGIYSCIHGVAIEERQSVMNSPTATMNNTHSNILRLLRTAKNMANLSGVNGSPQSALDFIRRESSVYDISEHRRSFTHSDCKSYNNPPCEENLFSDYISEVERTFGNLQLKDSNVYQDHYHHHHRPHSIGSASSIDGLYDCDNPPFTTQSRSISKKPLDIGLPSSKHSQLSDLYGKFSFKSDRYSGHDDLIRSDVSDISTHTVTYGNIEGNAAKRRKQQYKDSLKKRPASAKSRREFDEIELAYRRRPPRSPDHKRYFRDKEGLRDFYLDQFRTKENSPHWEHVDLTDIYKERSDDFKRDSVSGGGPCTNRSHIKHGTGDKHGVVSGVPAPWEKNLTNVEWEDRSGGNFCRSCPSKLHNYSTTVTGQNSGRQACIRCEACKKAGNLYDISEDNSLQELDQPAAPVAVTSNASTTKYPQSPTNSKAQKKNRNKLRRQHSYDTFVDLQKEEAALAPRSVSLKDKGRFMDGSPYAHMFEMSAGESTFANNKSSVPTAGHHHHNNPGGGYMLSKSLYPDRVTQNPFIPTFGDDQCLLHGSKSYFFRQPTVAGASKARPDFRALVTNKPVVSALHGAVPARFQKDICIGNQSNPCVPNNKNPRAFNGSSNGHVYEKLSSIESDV

Row | Response Recovered (%) | Compound
1 | 71 | O=C(Cn1cnc2c(c(-c3ccc(Cl)c(C(F)(F)F)c3)cn2C2CC2)c1=O)N1CCCC1 [Example 190, 5-(4-chloro-3-(trifluoromethyl)phenyl)-7-cyclopropyl-3-(2-oxo-2-(pyrrolidin-1-yl)ethyl)-3H-pyrrolo[2,3-d]pyrimidin-4(7H)-one]
2 | 75 | Cc1ncc(-c2csc3ccn(CC(=O)N4CC(C)(F)C4)c(=O)c23)cc1Cl [Example 90, 3-(5-chloro-6-methylpyridin-3-yl)-5-(2-(3-fluoro-3-methylazetidin-1-yl)-2-oxoethyl)thieno[3,2-c]pyridin-4(5H)-one]
3 | 35 | O=C(Cn1ccc2scc(-c3cnc(Cl)c(Cl)c3)c2c1=O)N1CCC(F)C1 (stereo not shown) [Example 12, 3-(5,6-dichloropyridin-3-yl)-5-(2-(3-fluoropyrrolidin-1-yl)-2-oxoethyl)thieno[3,2-c]pyridin-4(5H)-one]
4 | 66 | O=C(Cn1ccc2c(c(-c3ccc(F)c(Cl)c3)cn2CCF)c1=O)N1CCC(F)C1 (stereo not shown) [Example 253, 3-(3-chloro-4-fluorophenyl)-1-(2-fluoroethyl)-5-(2-(3-fluorpyrrolidin-1-yl)-2-oxoethyl)-1H-pyrrolo[3,2-c]pyridin-4(5H)-one]
5 | 89 | O=C(Cn1ccc2[nH]cc(-c3ccc(F)c(C(F)(F)F)c3)c2c1=O)N1CCC(F)C1 (stereo not shown) [Example 215, 3-(4-fluoro-3-(trifluoromethyl)phenyl)-5-(2-(3-fluoropyrrolidin-1-yl)-2-oxoethyl)-1H-pyrrolo[3,2-c]pyridin-4(5H)-one]
6 | 12 | O=C(Cn1cnc2csc(-c3ccc(C(F)(F)F)cc3)c2c1=O)N1CC(F)(F)C1 [Example 358, 3-(2-(3,3-difluoroazetidin-1-yl)-2-oxoethyl)-5-(4-(trifluoromethyl)phenyl)thieno[3,4-d]pyrimidin-4(3H)-one]
7 | 76 | COCCn1cc(-c2ccc(Cl)c(C(F)(F)F)c2)c2c(=O)n(CC(=O)N3CCCC3)cnc21 [Example 185, 5-(4-chloro-3-(trifluoromethyl)phenyl)-7-(2-methoxyethyl)-3-(2-oxo-2-(pyrrolidin-1-yl)ethyl)-3H-pyrrolo[2,3-d]pyrimidin-4(7H)-one]
8 | 3.1 | CC1(N)CN(C(=O)Cn2ccc3scc(-c4ccc(Cl)c(Cl)c4)c3c2=O)C1 [Example 94, 5-(2-(3-amino-3-methylazetidin-1-yl)-2-oxoethyl)-3-(3,4-dichlorophenyl)thieno[3,2-c]pyridin-4(5H)-one]
9 | 37 | O=C(Cn1ccc2scc(-c3ccc(F)c(C(F)(F)F)c3)c2c1=O)N1CC2C(C1)C2(F)F (stereo not shown) [Example 72, 5-(2-(6,6-difluoro-3-azabicyclo[3.1.0]hex-an-3-yl)-2-oxoethyl)-3-(4-fluoro-3-(trifluoromethyl)phen-yl)thieno[3,2-c]pyridin-4(5H)-one]
10 | 120 | O=C(Cn1ccc2[nH]cc(-c3ccc(F)c(C(F)(F)F)c3)c2c1=O)N1CC(F)C(F)C1 (stereo not shown) [Example 220, 5-(2-(3,4-difluoropyrrolidin-1-yl)-2-oxoethyl)-3-(4-fluoro-3-(trifluoromethyl)phenyl)-1H-pyrrolo[3,2-c]pyridin-4(5H)-one]
11 | 2 | O=C(Cn1nnc2scc(-c3ccc(Cl)c(C(F)(F)F)c3)c2c1=O)N1CCCC1C(F)(F)F (stereo not shown) [Example 334, 5-(4-chloro-3-(trifluoromethyl)phenyl)-3-(2-oxo-2-(2-(trifluoromethyl)pyrrolidin-1-yl)ethyl)thieno[2,3-d][1,2,3]triazin-4(3H)-one]
12 | 57 | CCC1(F)CN(C(=O)Cn2ccc3scc(-c4ccc(F)c(C(F)(F)F)c4)c3c2=O)C1 [Example 51, 5-(2-(3-ethyl-3-fluoroazetidin-1-yl)-2-oxoethyl)-3-(4-fluoro-3-(trifluoromethyl)phen-yl)thieno[3,2-c]pyridin-4(5H)-one]
13 | 120 | CC1(F)CN(C(=O)Cn2ccc3c(c(-c4cnc(Cl)c(Cl)c4)cn3C3CC3)c2=O)C1 [Example 289, 1-cyclopropyl-3-(5,6-dichloropyridin-3-yl)-5-(2-(3-fluoro-3-methylazetidin-1-yl)-2-oxoethyl)-1H-pyrrolo[3,2-c]pyridin-4(5H)-one]
14 | 22 | O=C(Cn1cc(-c2ccccc2)c2scc(-c3ccc(F)c(C(F)(F)F)c3)c2c1=O)N1CCCC1 [Example 104, 3-(4-fluoro-3-(trifluoromethyl)phenyl)-5-(2-oxo-2-(pyrrolidin-1-yl)ethyl)-7-phenylthieno[3,2-c]pyridin-4(5H)-one]
15 | 9 | COCCn1cc(-c2ccc(Cl)c(F)c2)c2c(=O)n(CC(=O)N3CCCC3)cnc21 [Example 187, 5-(4-chloro-3-fluorophenyl)-7-(2-methoxyethyl)-3-(2-oxo-2-(pyrrolidin-1-yl)ethyl)-3H-pyrrolo[2,3-d]pyrimidin-4(7H)-one]
16 | 85 | O=C(Cn1ccc2c(c(-c3ccc(Cl)c(Cl)c3)cn2C2CC2)c1=O)N1CCC(F)C1 (stereo not shown) [Example 233, 1-cyclopropyl-3-(3,4-dichlorophenyl)-5-(2-(3-fluoropyrrolidin-1-yl)-2-oxoethyl)-1H-pyrrolo[3,2-c]pyridin-4(5H)-one]
17 | 86 | CCn1cc(-c2ccc(F)c(C(F)(F)F)c2)c2c(=O)n(CC(=O)N3CCC(F)C3)ccc21 (stereo not shown) [Example 239, 1-ethyl-3-(4-fluoro-3-(trifluoromethyl)phenyl)-5-(2-(3-fluoropyrrolidin-1-yl)-2-oxoethyl)-1H-pyrrolo[3,2-c]pyridin-4(5H)-one]
18 | 13 | O=C(Cn1nnc2scc(-c3ccc(Cl)c(C(F)(F)F)c3)c2c1=O)N1CC(F)(F)C1 [Example 333, 5-(4-chloro-3-(trifluoromethyl)phenyl)-3-(2-(3,3-difluoroazetidin-1-yl)-2-oxoethyl)thieno[2,3-d][1,2,3]triazin-4(3H)-one]
19 | 109 | O=C(Cn1ccc2c(c(-c3ccc(Cl)c(C(F)(F)F)c3)cn2-c2ccccn2)c1=O)N1CCC(F)C1 (stereo not shown) [Example 224, 3-(4-chloro-3-(trifluoromethyl)phenyl)-5-(2-(3-fluoropyrrolidin-1-yl)-2-oxoethyl)-1-(pyridin-2-yl)-1H-pyrrolo[3,2-c]pyridin-4(5H)-one]
20 | 36 | O=C(Cn1cnc2c(c(-c3ccc(Cl)c(F)c3)cn2C2CC2)c1=O)N1CCCC1 [Example 191, 5-(4-chloro-3-fluorophenyl)-7-cyclopropyl-3-(2-oxo-2-(pyrrolidin-1-yl)ethyl)-3H-pyrrolo[2,3-d]pyrimidin-4(7H)-one]
21 | −4.2 | O=C(Cn1ccc2scc(-c3cnc(Cl)nc3)c2c1=O)N1CC(F)(CF)C1 [Example 142, 3-(2-chloropyrimidin-5-yl)-5-(2-(3-fluoro-3-(fluoromethyl)azetidin-1-yl)-2-oxoethyl)thieno[3,2-c]pyridin-4(5H)-one]
22 | 110 | O=C(Cn1ccc2c(c(-c3ccc(F)c(C(F)(F)F)c3)cn2-c2ccncn2)c1=O)N1CCC(F)C1 (stereo not shown) [Example 244, 3-(4-fluoro-3-(trifluoromethyl)phenyl)-5-(2-(3-fluoropyrrolidin-1-yl)-2-oxoethyl)-1-(pyrimidin-4-yl)-1H-pyrrolo[3,2-c]pyridin-4(5H)-one]
23 | 80 | CC1(F)CN(C(=O)Cn2ccc3c(c(-c4cnc(F)c(Cl)c4)cn3C3CC3)c2=O)C1 [Example 291, 3-(5-chloro-6-fluoropyridin-3-yl)-1-cyclopropyl-5-(2-(3-fluoro-3-methylazetidin-1-yl)-2-oxoethyl)-1H-pyrrolo[3,2-c]pyridin-4(5H)-one]
24 | 36 | O=C(Cn1cnc2[nH]cc(-c3ccc(F)c(Cl)c3)c2c1=O)N1CCCC1 [Example 156, 5-(3-chloro-4-fluorophenyl)-3-(2-oxo-2-(pyrrolidin-1-yl)ethyl)-3H-pyrrolo[2,3-d]pyrimidin-4(7H)-one]
25 | 72 | O=C(Cn1cc(CO)c2scc(-c3ccc(Cl)c(Cl)c3)c2c1=O)N1CCC(F)C1 (stereo not shown) [Example 131, 3-(3,4-dichlorophenyl)-5-(2-(3-fluoropyrrolidin-1-yl)-2-oxoethyl)-7-(hydroxymethyl) thieno[3,2-c]pyridin-4(5H)-one]
26 | 71 | O=C(Cn1ccc2[nH]cc(-c3ccc(F)c(Cl)c3)c2c1=O)N1CC(F)(F)C1 [Example 218, 3-(3-chloro-4-fluorophenyl)-5-(2-(3,3-difluoroazetidin-1-yl)-2-oxoethyl)-1H-pyrrolo[3,2-c]pyridin-4(5H)-one]
27 | 28 | O=C(Cn1ccc2scc(-c3cnc(Cl)c(C(F)(F)F)c3)c2c1=O)N1CCC(F)C1 (stereo not shown) [Example 25, 3-(6-chloro-5-(trifluoromethyl)pyri-din-3-yl)-5-(2-(3-fluoropyrrolidin-1-yl)-2-oxoethyl)thieno[3,2-c]pyridin-4(5H)-one]
28 | 37 | O=C(Cn1cnc2[nH]cc(-c3ccc(Cl)c(F)c3)c2c1=O)N1CCC(F)C1 (stereo not shown) [Example 179, 5-(4-Chloro-3-fluoro-phenyl)-3-[2-(3-fluoro-pyrrolidin-1-yl)-2-oxo-ethyl]-3,7-dihydro-pyrrolo[2,3-d]pyrimidin-4-one]
29 | 18 | O=C(Cn1ccc2scc(-c3cnc(F)c(Cl)c3)c2c1=O)N1CC(F)C(F)C1 (stereo not shown) [Example 38, 3-(5-chloro-6-fluoropyrridin-3-yl)-5-(2-(3,4-difluoropyrrolidin-1-yl)-2-oxoethyl)thieno[3,2-c]pyridin-4(5H)-one]
30 | 28 | O=C(Cn1ccc2cccc(-c3ccc(Cl)c(C(F)(F)F)c3)c2c1=O)N1CC(F)(F)C1 [Example 301, 8-(4-chloro-3-(trifluoromethyl)phenyl)-2-(2-(3,3-difluoroazetidin-1-yl)-2-oxoethyl)isoquinolin-1(2H)-one]

Row | Compound | Response Recovered (%)
31 | C[Si](C)(C)CCOCn1cc(-c2ccc(F)c(Cl)c2)c2c(=O)n(CC(=O)N3CCCC3)ccc21 [Example 205, 3-(3-chloro-4-fluorophenyl)-5-(2-oxo-2-(pyrrolidin-1-yl)ethyl)-1-((2-(trimethylsilyl)ethoxy)methyl)-1H-pyrrolo[3,2-c]pyridin-4(5H)-one] | 59

From patent US12162890B2 (Novartis AG, priority 2015, dated 2024)
